30 compounds from US6664271B1, “Immunopotentiator agents” (Eli Lilly and Company, priority 1999, dated 2003) can be followed below.

The test system of the first data set is chicken leukocytes. The data set is described as follows: cells. In kind it is cell-based. The following applies: Gallus gallus, Leukocyte; chicken leukocytes, read at 72 hours; read-out: MSC (Minimum Stimulatory Concentration). Here is the method:
Various compounds of Formula I were evaluated for in vitro T-lymphocyte blastogenic activity with chicken leukocytes according to the steps described in the following procedure:
(a) Exsanguination step. The leukocytes were obtained from 3-6 week old Hubbard/Peterson broiler chickens. Initially, the chickens were rendered unconscious in a CO2 chamber. The chickens were then exsanguinated via cardiac puncture. In the exsanguination procedure, a syringe was connected to a needle, and the needle was inserted into the area at the base of the neck under the “V” formed by the breast and sternum. After the needle was properly inserted, continuous vacuum was applied to a syringe (connected to the needle) by pulling back on the plunger. It is important to promptly carry out this withdrawal action, because there is only a 10-15 seconds time period after the blood has starting flowing into the syringe before the blood coagulates, and becomes unusable. As soon as the syringe is full (or prior to complete filling if too much time has elapsed such that the blood begins to coagulate), the whole uncoagulated blood is transferred to a tube having the anticoagulant EDTA therein. The tube is then rotated to mix the whole blood and the EDTA. Alternatively, the whole blood can be withdrawn directly into a vacuum container already having EDTA therein, rather than into a syringe.
(b) Leukocyte isolation step. Numerous methods for isolating leukocytes from (uncoagulated) whole blood are known in the art. In a preferred method, the sterile whole blood was combined with methylcellulose (1.5:1). Any blood containing clots was discarded. The mixture was centrifuged at 30×g for ten minutes (300 rpm on Beckman GS-6R centrifuge). The top layer (leukocytes in supernatant) was decanted into a sterile 50 ml conical tube, while taking care to prevent contamination of the sample by red blood cells. The decanted layer was then centrifuged at 200×g for ten minutes (1500 rpm on the Beckman GS-6R centrifuge). The supernatant liquid was discarded, and the resulting cell “pellet” was retained.
The cells were then washed in a solution containing 10 ml PBS (phosphate buffered saline) and Gentamycin (gentamicin sulfate) at a concentration of 50 μg/ml. This solution was centrifuged at 100×g (1000 rpm on the Beckman centrifuge) for five minutes, and the supernatant liquid was discarded. The washing step (including the centrifuging at 100×g) was repeated to ensure complete removal of the methylcellulose. The use of media such as DMEM ([…]) was avoided in the washing steps, since such media may cause agglutination of the white blood cells. Finally, the cells were then suspended in an appropriate media, such as RPMI 1640 tissue cell culture medium, supplemented with phenol red, NaHCO3, and L-Glutamide. Supplemented RPMI 1640 is available from Sigma-Aldrich Chemical Co.
(c) Cell counting and cell viability step. The cells were counted and checked for viability using the Trypan Blue method of exclusion. 0.1 ml of the cell suspension was placed in a 4-5 ml small culture tube along with 0.7 ml HBSS (Hank's Buffered Saline Solution), available from Sigma-Aldrich, and 0.2 ml of a 0.4% solution of aqueous Trypan Blue stain, available from GIBCO BRL, of Grand Island, N.Y. The components were mixed thoroughly but gently, and allowed to sit for 5 minutes (no longer than 15 minutes). The components should not be exposed to the stain for extended periods of time, because such extended exposure may permit viable cells, as well as non-viable cells, to take up dye.
A cover slip was placed on a Bright Line hemacytometer, available from Howser Scientific, and 10 μl of the mixture from the tube was transferred to each chamber. Non-viable cells appear blue under a microscope. The viable cells in one of the 16-square corners of the hemacytometer were then counted. […]
For `CCOC(=O)C1CCCN(C(=O)c2ccccc2)C1` (stereo not shown) [Example 1, Ethyl 1-Benzoyl-3-piperidinecarboxylate], the minimal effective concentration was 0.1 µg/mL.

As for `CCOC(=O)C1CCCN(C(=O)c2ccsc2)C1` (stereo not shown) [Example 2, Ethyl 1-(3-thiophenecarbonyl)-3-piperidinecarboxylate], the minimal effective concentration stood at 1 µg/mL.

Turning to `CCOC(=O)C1CN(C(=O)c2ccccc2)CCC1=O` (stereo not shown) [Example 3, Ethyl 1-Benzoyl-4-oxo-3-piperidinecarboxylate], the minimal effective concentration came out at 0.01 µg/mL.

Consider `CCOC(=O)C1CCCN(C(=O)OCc2ccccc2)C1` (stereo not shown) [Example 4, Ethyl 1-Benzyloxycarbonyl-3-piperidinecarboxylate], for which the minimal effective concentration was found to be 1 µg/mL.

For `CCOC(=O)C1CCCN(C(=O)c2ccc(F)cc2)C1` (stereo not shown) [Example 7, Ethyl 1-(4-Fluorobenzoyl)-3-piperidinecarboxylate], the minimal effective concentration turned out to be 0.01 µg/mL.

Take `CCOC(=O)C1CCCN(C(=O)Cc2cccs2)C1` (stereo not shown) [Example 9, Ethyl 1-(2-thiopheneacetyl)-3-piperidinecarboxylate]: the minimal effective concentration came out at 0.01 µg/mL.

Turning to `CCOC(=O)C1CN(C(=O)OCc2ccccc2)CCC1=O` (stereo not shown) [Example 10, Ethyl 1-Benzyloxycarbonyl-4-oxo-3-piperidinecarboxylate], the minimal effective concentration came to 0.01 µg/mL.

As to `CCOC(=O)C1CN(C(=O)c2ccc(F)cc2)CCC1=O` (stereo not shown) [Example 12, Ethyl 1-(4-Fluorobenzoyl)-4-oxo-3-piperidinecarboxylate], the minimal effective concentration turned out to be 0.01 µg/mL.

As to `CCCCOC(=O)C1CCCN(C(=O)c2ccccc2)C1` (stereo not shown) [Example 13, n-Butyl 1-Benzoyl-3-piperidinecarboxylate], the minimal effective concentration stood at 0.01 µg/mL.

Take `CCNC(=O)C1CCCN(C(=O)c2ccccc2)C1` (stereo not shown) [Example 17, N-Ethyl 1-Benzoyl-3-piperidinecarboxamide]: the minimal effective concentration was determined as 1 µg/mL.

`CCCCCCCCNC(=O)C1CCCN(C(=O)c2ccccc2)C1` (stereo not shown) [Example 18, N-(n-Octyl) 1-Benzoyl-3-piperidinecarboxamide]: the minimal effective concentration was 0.01 µg/mL.

In the case of `CCNC(=O)C1CCCN(C(=O)Cc2cccs2)C1` (stereo not shown) [Example 20, N-Ethyl 1-(2-Thiopheneacetyl)-3-piperidinecarboxamide], the minimal effective concentration is 0.1 µg/mL.

`CCOC(=O)C1CCCN(C(=O)CCc2cccs2)C1` (stereo not shown) [Example 23, Ethyl 1-(3-(2-Thienyl)propionyl)3-piperidinecarboxylate]: the minimal effective concentration stood at 0.1 µg/mL.

In the case of `CN(C)CCNC(=O)C1CCCN(C(=O)Cc2cccs2)C1` (stereo not shown) [Example 25, 2-Dimethylaminoethyl 1-(2-thiopheneacetyl)-3-piperidinecarboxamide], the minimal effective concentration stood at 0.1 µg/mL.

For `CCOC(=O)CC1CCCN(C(=O)Cc2cccs2)C1` (stereo not shown) [Example 27, Ethyl 1-(2-Thiopheneacetyl)-3-piperidinylacetate], the minimal effective concentration came to 1 µg/mL.

Turning to `CCOC(=O)C1CCC(C)N(C(=O)Cc2cccs2)C1` (stereo not shown) [Example 33, Ethyl 1-(2-Thiopheneacetyl)-6-methyl-3-piperidinecarboxylate], the minimal effective concentration is 0.1 µg/mL.

Turning to `CCOC(=O)C1CCCN(C(=O)c2ccc(-c3ccccc3)cc2)C1` (stereo not shown) [Example 36, Ethyl 1-(4-Phenylbenzoyl)-3-piperidinecarboxylate], the minimal effective concentration was determined as 0.1 µg/mL.

For `O=C(O)[C@H]1CCCN(C(=O)Cc2cccs2)C1` [Example 37, (S)-1-(2-Thiopheneacetyl)-3-piperidine Carboxylic Acid], the minimal effective concentration worked out at 10 µg/mL.

For the compound `COC(=O)C1CN(C(=O)OCc2ccccc2)CCC1=O` (stereo not shown) [Example 38, Methyl 1-Benzyloxycarbonyl-4-oxo-3-piperidinecarboxylate], the minimal effective concentration was determined as 1 µg/mL.

For the compound `CCOC(=O)C1(C)CCCN(C(=O)c2ccccc2)C1` (stereo not shown) [Example 39, Ethyl 1-Benzoyl-3-methyl-3-piperidinecarboxylate], the minimal effective concentration was 1 µg/mL.

Regarding `CNC(=O)N1C2CCC1C(C(=O)OC)C(=O)C2` (stereo not shown) [Example 40, 8-[(Methylamino)carbonyl]-3-oxo-8-azabicyclo[3.2.1]octane-2-carboxylic Acid, Methyl Ester], the minimal effective concentration came to 0.01 µg/mL.

For the compound `O=C(Cc1cccs1)N1CCCC(O)C1` (stereo not shown) [Example 41, 1-(2-Thiopheneacetyl)-3-hydroxypiperidine], the minimal effective concentration was 10 µg/mL.

As to `N.O=C(O)[C@H]1CCCN(C(=O)Cc2cccs2)C1` [Example 42, (S)-1-(2-Thiopheneacetyl)-3-piperidinecarboxylic Acid Ammonium Salt], the minimal effective concentration is 1 µg/mL.

The same data set, now with this note: Hubbard/Peterson broiler, chicken, 72 h.
In the case of `CCOC(=O)C1CCCN(C(=O)c2ccccc2)C1` (stereo not shown) [Example 1, Ethyl 1-Benzoyl-3-piperidinecarboxylate], the “MTC (Maximum Tolerable Concentration prior to causing cytotoxicity)” value (from here on “MTC”) was 10 µg/mL.

On to `CCOC(=O)C1CCCN(C(=O)c2ccsc2)C1` (stereo not shown) [Example 2, Ethyl 1-(3-thiophenecarbonyl)-3-piperidinecarboxylate], for which the “MTC” value amounted to 1 µg/mL.

Regarding `CCOC(=O)C1CN(C(=O)c2ccccc2)CCC1=O` (stereo not shown) [Example 3, Ethyl 1-Benzoyl-4-oxo-3-piperidinecarboxylate], the “MTC” value came to 1 µg/mL.

For the compound `CCOC(=O)C1CCCN(C(=O)OCc2ccccc2)C1` (stereo not shown) [Example 4, Ethyl 1-Benzyloxycarbonyl-3-piperidinecarboxylate], the “MTC” value was 10 µg/mL.

Turning to `CCOC(=O)C1CCCN(C(=O)c2ccc(F)cc2)C1` (stereo not shown) [Example 7, Ethyl 1-(4-Fluorobenzoyl)-3-piperidinecarboxylate], the “MTC” value was determined as 10 µg/mL.

As for `CCOC(=O)C1CCCN(C(=O)Cc2cccs2)C1` (stereo not shown) [Example 9, Ethyl 1-(2-thiopheneacetyl)-3-piperidinecarboxylate], the “MTC” value was determined as 1 µg/mL.

As to `CCOC(=O)C1CN(C(=O)OCc2ccccc2)CCC1=O` (stereo not shown) [Example 10, Ethyl 1-Benzyloxycarbonyl-4-oxo-3-piperidinecarboxylate], the “MTC” value stood at 0.1 µg/mL.

Consider `CCOC(=O)C1CN(C(=O)c2ccc(F)cc2)CCC1=O` (stereo not shown) [Example 12, Ethyl 1-(4-Fluorobenzoyl)-4-oxo-3-piperidinecarboxylate], for which the “MTC” value came to 0.1 µg/mL.

As to `CCCCOC(=O)C1CCCN(C(=O)c2ccccc2)C1` (stereo not shown) [Example 13, n-Butyl 1-Benzoyl-3-piperidinecarboxylate], the “MTC” value was 1 µg/mL.

Take `CCNC(=O)C1CCCN(C(=O)c2ccccc2)C1` (stereo not shown) [Example 17, N-Ethyl 1-Benzoyl-3-piperidinecarboxamide]: the “MTC” value is 10 µg/mL.

Consider `CCCCCCCCNC(=O)C1CCCN(C(=O)c2ccccc2)C1` (stereo not shown) [Example 18, N-(n-Octyl) 1-Benzoyl-3-piperidinecarboxamide], for which the “MTC” value is 0.1 µg/mL.

In the case of `CCNC(=O)C1CCCN(C(=O)Cc2cccs2)C1` (stereo not shown) [Example 20, N-Ethyl 1-(2-Thiopheneacetyl)-3-piperidinecarboxamide], the “MTC” value was 1 µg/mL.

Take `CCOC(=O)C1CCCN(C(=O)CCc2cccs2)C1` (stereo not shown) [Example 23, Ethyl 1-(3-(2-Thienyl)propionyl)3-piperidinecarboxylate]: the “MTC” value came out at 1 µg/mL.

For the compound `CN(C)CCNC(=O)C1CCCN(C(=O)Cc2cccs2)C1` (stereo not shown) [Example 25, 2-Dimethylaminoethyl 1-(2-thiopheneacetyl)-3-piperidinecarboxamide], the “MTC” value amounted to 1 µg/mL.

`CCOC(=O)CC1CCCN(C(=O)Cc2cccs2)C1` (stereo not shown) [Example 27, Ethyl 1-(2-Thiopheneacetyl)-3-piperidinylacetate]: the “MTC” value amounted to 1 µg/mL.

For the compound `CCOC(=O)C1CCC(C)N(C(=O)Cc2cccs2)C1` (stereo not shown) [Example 33, Ethyl 1-(2-Thiopheneacetyl)-6-methyl-3-piperidinecarboxylate], the “MTC” value came to 10 µg/mL.

With `CCOC(=O)C1CCCN(C(=O)c2ccc(-c3ccccc3)cc2)C1` (stereo not shown) [Example 36, Ethyl 1-(4-Phenylbenzoyl)-3-piperidinecarboxylate], the “MTC” value is 10 µg/mL.

Regarding `O=C(O)[C@H]1CCCN(C(=O)Cc2cccs2)C1` [Example 37, (S)-1-(2-Thiopheneacetyl)-3-piperidine Carboxylic Acid], the “MTC” value turned out to be 1000 µg/mL.

For `COC(=O)C1CN(C(=O)OCc2ccccc2)CCC1=O` (stereo not shown) [Example 38, Methyl 1-Benzyloxycarbonyl-4-oxo-3-piperidinecarboxylate], the “MTC” value was 1 µg/mL.

For the compound `CCOC(=O)C1(C)CCCN(C(=O)c2ccccc2)C1` (stereo not shown) [Example 39, Ethyl 1-Benzoyl-3-methyl-3-piperidinecarboxylate], the “MTC” value was found to be 1 µg/mL.

Take `O=C(Cc1cccs1)N1CCCC(O)C1` (stereo not shown) [Example 41, 1-(2-Thiopheneacetyl)-3-hydroxypiperidine]: the “MTC” value came out at 100 µg/mL.

Staying with this data set, now noted: chicken leukocytes, read at 72 hours.
Take `CCOC(=O)[C@H]1CCCN(C(=O)C(C)c2ccccc2)C1` (mixture of isomers) [Example 58, (S)±Ethyl 1-(2-Phenylpropionyl)-3-piperidinecarboxylate]: the “MSC (Minimum Stimulatory Concentration)” value stood at 1 µg/mL.

Consider `CCOC(=O)C1CCCN(C(=O)Cc2ccccc2)C1` (stereo not shown) [Example 6, Ethyl 1-Phenylacetyl-3-piperidinecarboxylate], for which the “MSC (Minimum Stimulatory Concentration)” value worked out at 0.1 µg/mL and the “MTC” value was 1 µg/mL.

Turning to `CCOC(=O)C1CCCN(C(=O)c2cccs2)C1` (stereo not shown) [Example 8, Ethyl (2-Thiophenecarbonyl)-3-piperidinecarboxylate], the “MSC (Minimum Stimulatory Concentration)” value was 0.1 µg/mL.

With `CCOC(=O)CC1CCCCN1C(=O)Cc1cccs1` (stereo not shown) [Example 28, Ethyl 1-(2-Thiopheneacetyl)-2-piperidinylacetate], the “MSC (Minimum Stimulatory Concentration)” value was 0.1 µg/mL.

With `CCOC(=O)C1CCC[N+](C)(Cc2ccccc2)C1.[I-]` (stereo not shown) [Example 35, Ethyl 1-Benzyl-3-piperidinecarboxylate 1-Methiodide], the “MSC (Minimum Stimulatory Concentration)” value is 10 µg/mL.

As to `CNC(=O)N1C2CCC1C(C(=O)OC)C(=O)C2` (stereo not shown) [Example 40, 8-[(Methylamino)carbonyl]-3-oxo-8-azabicyclo[3.2.1]octane-2-carboxylic Acid, Methyl Ester], the “MTC” value is 10 µg/mL.

For the compound `N.O=C(O)[C@H]1CCCN(C(=O)Cc2cccs2)C1` [Example 42, (S)-1-(2-Thiopheneacetyl)-3-piperidinecarboxylic Acid Ammonium Salt], the “MTC” value is 10 µg/mL.

In the case of `CCOC(=O)C1CCCN(C(=O)CCc2ccccc2)C1` (stereo not shown) [Example 43, Ethyl 1-(1-Phenylpropionyl)-3-piperidinecarboxylate], the “MSC (Minimum Stimulatory Concentration)” value was 1 µg/mL.

As to `CS(=O)(=O)OC1CCCN(C(=O)Cc2cccs2)C1` (stereo not shown) [Example 44, 1-(2-Thiopheneacetyl)-3-(O-methanesulfonyl)piperidine], the “MSC (Minimum Stimulatory Concentration)” value is 1 µg/mL and the “MTC” value turned out to be 10 µg/mL.
